Literature values as cited in US20260355131A1, “SPRAY-DRIED COMPOSITIONS COMPRISING ADRENERGIC RECEPTOR MODULATORS” (OREXO AB, priority 2023, published 2026).

Tests used:
[1] = in solution
[2] = free acid/base compound

CNC[C@H](O)c1ccc(O)c(O)c1 [epinephrine]
pH below which epinephrine is stable [1]: below 4 | optimum pH balancing racemization and oxidation ([1]; Connors et al): 3.0-3.8 | aqueous solubility [2]: more limited aqueous solubility
